Test [1] addresses T1, TGW6 (THOUSAND-GRAIN WEIGHT 6), IAA-glucose hydrolase (Oryza sativa, UniProt Q69U01).
T1 construct: gene Os06g0623700; recombinant; N-terminal Trx-(His)6 tag cleaved with thrombin; E. coli Rosetta-gami 2(DE3); purified
T1 sequence (Q69U01 31-350): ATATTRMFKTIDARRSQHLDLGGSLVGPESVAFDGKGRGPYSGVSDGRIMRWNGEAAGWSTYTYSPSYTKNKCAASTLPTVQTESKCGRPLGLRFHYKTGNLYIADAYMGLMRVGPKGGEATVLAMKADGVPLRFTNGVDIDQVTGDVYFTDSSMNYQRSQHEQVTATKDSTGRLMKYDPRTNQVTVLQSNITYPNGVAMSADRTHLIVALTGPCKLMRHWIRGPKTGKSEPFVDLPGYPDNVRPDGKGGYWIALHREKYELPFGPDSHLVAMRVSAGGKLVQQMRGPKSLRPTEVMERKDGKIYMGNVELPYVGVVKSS
The experiment in a line: […] NMR fragment screening (CPMG R2 filter). Conditions: 298 K. In kind it is binding.

The target in test [2] is T1, TGW6 (THOUSAND-GRAIN WEIGHT 6), IAA-glucose hydrolase. The experiment in a line: thermal shift (UNCLE, intrinsic Trp fluorescence BCM). Conditions: 27.6 μM TGW6, 55.0 μM ligand, 2 mM CaCl2, pH 7.0. In kind it is binding.
[3] abbreviates: 10 μM TGW6, 50 μM fragment in mixture.

Where only a bound is given, the exact number is not on record here.

For the compound `O=[N+]([O-])c1ccc(OCC2CCCO2)c(F)c1` (stereo not shown) [CK0-00681, 2-[(2-Fluoro-4-nitrophenoxy)methyl]tetrahydrofuran], the “ΔIntensity (%)” value in test [1] (10 μM TGW6, 50 μM fragment in mixture, not competitive with IAA-Glc, different site implied) is listed as “− 100.0”.
As for `O=C(O)Cc1c[nH]c2c(F)cccc12` [PK0-38511, 2-(7-Fluoro-1H-indol-3-yl)acetic acid], the Tm shift in test [2] was ~ 9 °C. The “ΔIntensity (%)” value in test [1] (10 μM TGW6, 50 μM fragment in mixture, competitive with IAA-Glc) is on record as “− 50.3”.
In the case of `O=C(Cc1c[nH]c2ccccc12)O[C@@H]1O[C@H](CO)[C@@H](O)[C@H](O)[C@H]1O` [IAA-Glc, 1-O-indole-3-ylacetyl-β-D-glucose], in test [2], the Tm shift is ~ 5 °C.
With `COC(=O)Cc1c[nH]c2ccccc12` [MeIAA, methyl indole 3-acetate], the Tm shift in test [2] is over 3 °C.
`C[C@H](NC(=O)Cc1c[nH]c2ccccc12)C(=O)O` [IAA-Ala]: the Tm shift in test [2] was ~ 10 °C.
The same measure, in the same setting: with `O=C(O)Cc1c[nH]c2ccccc12` [IAA, indole-3-acetic acid] the figure was over 3 °C.
Take `O=C(O)C(c1c[nH]c2ccc(F)cc12)C(F)(F)F` (stereo not shown) [PK0-42071, 3,3,3-Trifluoro-2-(5-fluoro-1H-indol-3-yl)propanoic acid]: the “ΔIntensity (%)” value in test [1] (10 μM TGW6, CF3-containing fragment at 17.5 μM in mixture) is on record as “− 46.0”.
Turning to `O=C(O)CCCc1c[nH]c2ccccc12` [IBA, indole 3-butyric acid], the Tm shift in test [2] was over 3 °C.
For the compound `O=[N+]([O-])c1c(F)cccc1N1CCC(O)CC1` [CK0-02991, 1-(3-Fluoro-2-nitrophenyl)piperidin-4-ol], the “ΔIntensity (%)” value in test [1] (setting [3]) is reported as “− 57.9”.
`O=C(O)Cc1c[nH]c2cccc(F)c12` [PK0-38501, 2-(4-Fluoro-1H-indol-3-yl)acetic acid]: in test [2], the Tm shift is ~ 7 °C. The “ΔIntensity (%)” value in test [1] (setting [3]) was “− 46.5”.
For the compound `O=[N+]([O-])c1ccc(OC2CCOCC2)c(F)c1` [CK0-03011, 4-(2-Fluoro-4-nitrophenoxy)tetrahydro-2H-pyran], the “ΔIntensity (%)” value in test [1] (setting [3]) was “− 45.4”.
